Values of other authors as cited in patent publication US11771784B2, “Material, device, and method for deactivating pathogen in aerosol, and methods for manufacturing thereof” (priority 2016, dated 2023).

Conditions: in water

## (sodium/potassium) tartrates
  maximum solubility limit: about 660 g/l

## [Cl-].[K+] [potassium chloride]
  maximum solubility limit: about 355 g/l
